# Measurements reported in PubChem BioAssay (NCI).
#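 Five compound concentrations were applied to cells in 96-well plates for 48 hours; endpoints were derived by simple linear interpolation of the resulting dose-response curve. TGI: total growth inhibition.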
# Assays:
# Assay in all cases: NCI anticancer screen, dose series, 48 h
# [1] = system: U251 CNS
# [2] = system: SW-620 colon
# [3] = system: K-562 leukemia
# [4] = system: LOX IMVI melanoma
# [5] = system: NCI-H522 lung
# [6] = system: NCI-H226 lung
# [7] = system: RXF-631 renal
# [8] = system: M19-MEL melanoma
# [9] = system: SK-OV-3 ovarian
# [10] = system: KM20L2 colon
# [11] = system: SF-295 CNS
# [12] = system: SF-268 CNS
# [13] = system: OVCAR-4 ovarian
# [14] = system: SNB-75 CNS
# [15] = system: SK-MEL-2 melanoma
# [16] = system: MOLT-4 leukemia
# [17] = system: OVCAR-8 ovarian
# [18] = system: LXFL 529 NSCLC
# [19] = system: SNB-19 CNS
# [20] = system: TK-10 renal
# [21] = system: HT29 colon
# [22] = system: RPMI-8226 leukemia
# [23] = system: HCT-15 colon
# [24] = system: A498 renal
# [25] = system: KM12 colon
# [26] = system: HCT-116 colon
# [27] = system: HOP-92 NSCLC
# [28] = system: NCI-H460 lung
# [29] = system: NCI-H23 lung
# [30] = system: HL-60(TB) leukemia
# [31] = system: DMS 273 small cell lung
# [32] = system: XF 498 CNS
# [33] = system: SK-MEL-28 melanoma
# [34] = system: CAKI-1 renal
# [35] = system: COLO 205 colon
# [36] = system: MALME-3M melanoma
# [37] = system: EKVX NSCLC
# [38] = system: HOP-18 NSCLC
# [39] = system: OVCAR-5 ovarian
# [40] = system: SNB-78 CNS
# [41] = system: RXF 393 renal
# [42] = system: UO-31 renal
# [43] = system: A549 NSCLC
# [44] = system: UACC-257 melanoma
# [45] = system: ACHN renal
# [46] = system: HOP-62 NSCLC
# [47] = system: OVCAR-3 ovarian
# [48] = system: UACC-62 melanoma
# [49] = system: HCC-2998 colon
# [50] = system: DLD-1 colon
# [51] = system: IGROV1 ovarian
# [52] = system: 786-0 renal
# [53] = system: SN12C renal
# [54] = system: SF-539 CNS
# [55] = system: CCRF-CEM leukemia
# [56] = system: M14 melanoma
# [57] = system: SK-MEL-5 melanoma
compound,measurement,setting,value
CCOc1ccc(N=Cc2ccc3ccccc3n2)cc1,TGI,[1],> 100 µM
same,TGI,[2],> 100 µM
same,TGI,[3],> 100 µM
same,TGI,[4],> 100 µM
same,TGI,[5],> 100 µM
same,TGI,[6],> 100 µM
same,TGI,[7],> 100 µM
same,TGI,[8],> 100 µM
same,TGI,[9],> 100 µM
same,TGI,[10],> 100 µM
same,TGI,[11],> 100 µM
same,TGI,[12],> 100 µM
same,TGI,[13],> 100 µM
same,TGI,[14],> 86.3 µM
same,TGI,[15],> 100 µM
same,TGI,[16],> 100 µM
same,TGI,[17],> 100 µM
same,TGI,[18],> 100 µM
same,TGI,[19],> 100 µM
same,TGI,[20],> 100 µM
same,TGI,[21],> 100 µM
same,TGI,[22],> 100 µM
same,TGI,[23],> 100 µM
same,TGI,[24],> 100 µM
same,TGI,[25],> 100 µM
same,TGI,[26],> 100 µM
same,TGI,[27],> 100 µM
same,TGI,[28],> 100 µM
same,TGI,[29],> 100 µM
same,TGI,[30],> 76.8 µM
same,TGI,[31],> 100 µM
same,TGI,[32],> 100 µM
same,TGI,[33],> 100 µM
same,TGI,[34],> 100 µM
same,TGI,[35],> 100 µM
same,TGI,[36],> 100 µM
same,TGI,[37],> 100 µM
same,TGI,[38],> 100 µM
same,TGI,[39],> 100 µM
same,TGI,[40],> 100 µM
same,TGI,[41],> 100 µM
same,TGI,[42],> 100 µM
same,TGI,[43],> 100 µM
same,TGI,[44],> 100 µM
same,TGI,[45],> 100 µM
same,TGI,[46],> 100 µM
same,TGI,[47],> 100 µM
same,TGI,[48],> 100 µM
same,TGI,[49],> 100 µM
same,TGI,[50],> 100 µM
same,TGI,[51],> 100 µM
same,TGI,[52],> 100 µM
same,TGI,[53],> 100 µM
same,TGI,[54],> 100 µM
same,TGI,[55],> 100 µM
same,TGI,[56],> 100 µM
same,TGI,[57],> 100 µM
